Test system: 556581-035-R-J1-PDC complex spheroid viability
Test: Anticancer human tumor 556581-035-R-J1-PDC patient-derived ovarian carcinoma cell line growth inhibition
Details: for IC50: curve of first compound; for viability, T/C: stronger effect = lower value
Excerpt: Multicellular complex tumor spheroid response to LSD1 Inhibitor Iadademstat in combination with a variety of drugs and investigational agents in selected tumor cell lines
The current study was undertaken to assess response to LSD1 inhibitors in combination with standard-of-care drugs and investigational agents in solid tumor complex spheroid models as well as in the K-562 leukemia. Complex spheroids include a stromal component modeled by human endothelial cells (HUVEC) and fibroblasts modeled by human mesenchymal stem cells (MSCs). The concentration ranges selected for each drug and investigational agent were based upon clinically achievable concentrations if the clinical Cmax of the agent was known.
Compounds. The drugs and investigational agents used in this study are listed on Table 1. All of the agents used, including staurosporine (NSC755774) and gemcitabine (NSC613327), were obtained from the Developmental Therapeutics Program, NCI. FDA-approved anticancer drugs are available from the NCI at http://dtp.nci.nih.gov/branches/dscb/oncology_drugset_explanation.html. Drugs and investigational agents were >95% pure by proton nuclear magnetic resonance (NMR) and liquid chromatography/mass spectrometry (LC/MS). Stock solutions were prepared at 400x in DMSO, stored at -70 degrees C, and diluted in fresh medium prior to their use. The final concentration of DMSO in cell culture wells never exceeded 0.25% (v/v). The FDA-approved anticancer drug set is available from the Developmental Therapeutics Program at https://dtp.cancer.gov/organization/dscb/obtaining/available_plates.htm. All drugs and investigational agents were tested over a range starting from a high concentration at or near the clinical Cmax and decreasing in half-log increments. If the clinical Cmax for an agent had not been determined, the highest concentration tested was 10 microM.
Cell Lines. The patient-derived cancer cell (PDC) lines: 292921-168-R-J2-PDC, K24384-001-R-PDC, and 521955-158-R2-J5-PDC pancreatic carcinomas, 556581-035-R-J1 ovarian carcinoma, 324938-238-R-J1-PDC, 855422-203-R-J1-PDC and 883617-216-R-J1-PDC urothelial bladder carcinomas, 743489-274-T-PDC renal cell carcinoma, 138582-R-J1 Merkel cell tumor, K60290-347-R-J1 and K57222-313-R-J1-PDC glioblastomas, 653999-131-R-J2-PDC, LG0703-F948-PDC, and 349418-098-R-PDC non-small cell lung carcinomas, 885512-296-R-J2-PDC, 171881-019-R-J1-PDC breast carcinomas and 186277-243-T-J2-PDC and 233499-124-R-J2-PDC colon carcinomas were obtained from the NCI Patient-Derived Models Repository (PDMR, https://pdmr.cancer.gov). The established cell lines NCI/ADR-RES (RRID:CVCL_14520 and OVCAR-5 (RRID:CVCL_1628) ovarian carcinomas, 786-O (RRID:CVCL_1051) and A498 (RRID:CVCL_A498) renal cell carcinoma, NCI-H211 (ATCC, cat. CRL-5824; RRID:CVCL_1529), NCI-H196 (ATCC, cat. CRL-5823, RRID:CVCL_1509), SW 1271 (ATCC, cat. CRL-2177, RRID:CVCL_1716) and NCI-H1876 (ATCC, cat. CRL-5902, RRID:CVCL_1503) small cell lung carcinomas, MDA-MB-231 (RRID:CVCL_0062) and MDA-MB-468 (RRID:CVCL_0419)breast carcinomas (10-12). Pooled donor human umbilical vein endothelial cells (HUVEC, Lonza, cat. CC-2519) and human mesenchymal stem cells (hMSC, Lonza, cat. PT-2501) were purchased from Lonza (Walkersville, MD).
Cell Culture. All cells were maintained in an incubator at 37 degrees C and 5% CO2 with 95% humidity. The PDC lines were cultured according to standard operating procedures established by the NCI PDMR (https://pdmr.cancer.gov). Briefly all PDCs were thawed and cultured in Matrigel-coated flasks prepared with a working solution of 1X Ham's F-12 nutrient mix, without supplementation (Invitrogen, Waltham, MA, cat. 11765054), 100 U/mL penicillin-streptomycin (Invitrogen, cat. 15140122), and 2.5% Matrigel (Corning Inc., Corning, NY, cat. 354248) for the first three passages. […]
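Also: spheroids exposed to agents for seven days.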
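For viability, T/C in this document: 100% = DMSO vehicle control wells.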

Question: Which IC50 (second compound 0.1 µM) does the source give for `CC[C@@]1(O)C(=O)OCc2c1cc1n(c2=O)Cc2cc3c(CN(C)C)c(O)ccc3nc2-1` + NC1CC1c1ccc(-c2cccc(O)c2)cc1 here?
Answer: The IC50 was 5.86 nM.

Question: What about the IC50 (second compound 0.316 µM) of the same compound?
Answer: The IC50 was 5.85 nM.

Question: And the IC50 (second compound 1 µM)?
Answer: The IC50 was 5.62 nM.

Question: And the IC50 (second compound 3.16 µM)?
Answer: The IC50 was 6.11 nM.

Question: And the IC50 (second compound 10 µM)?
Answer: Its IC50 is 5.17 nM.

Question: What about the viability, T/C (second compound 0.1 µM, first compound 0.000316 µM) of the same compound?
Answer: The viability, T/C was 97.9%.

Question: What about the viability, T/C (second compound 0.1 µM, first compound 0.001 µM) of the same compound?
Answer: Its viability, T/C is 88.2%.

Question: What about the viability, T/C (second compound 0.1 µM, first compound 0.00316 µM) of the same compound?
Answer: Its viability, T/C is 67%.

Question: And the viability, T/C (second compound 0.1 µM, first compound 0.01 µM)?
Answer: The viability, T/C was 34.9%.

Question: What about the viability, T/C (second compound 0.1 µM, first compound 0.0316 µM) of the same compound?
Answer: Its viability, T/C is 16.6%.

Question: And the viability, T/C (second compound 0.1 µM, first compound 0.1 µM)?
Answer: Its viability, T/C is 7.12%.

Question: What about the viability, T/C (second compound 0.316 µM, first compound 0.000316 µM) of the same compound?
Answer: Its viability, T/C is 95.5%.

Question: What about the viability, T/C (second compound 0.316 µM, first compound 0.001 µM) of the same compound?
Answer: The viability, T/C was 104%.

Question: What about the viability, T/C (second compound 0.316 µM, first compound 0.00316 µM) of the same compound?
Answer: The viability, T/C was 64.8%.

Question: What about the viability, T/C (second compound 0.316 µM, first compound 0.01 µM) of the same compound?
Answer: Its viability, T/C is 34.5%.

Question: And the viability, T/C (second compound 0.316 µM, first compound 0.0316 µM)?
Answer: The viability, T/C was 16.6%.

Question: And the viability, T/C (second compound 0.316 µM, first compound 0.1 µM)?
Answer: The viability, T/C was 6.13%.

Question: And the viability, T/C (second compound 1 µM, first compound 0.000316 µM)?
Answer: Its viability, T/C is 91.2%.

Question: What about the viability, T/C (second compound 1 µM, first compound 0.001 µM) of the same compound?
Answer: The viability, T/C was 95.1%.

Question: And the viability, T/C (second compound 1 µM, first compound 0.00316 µM)?
Answer: The viability, T/C was 68.4%.

Question: And the viability, T/C (second compound 1 µM, first compound 0.01 µM)?
Answer: Its viability, T/C is 30.3%.

Question: And the viability, T/C (second compound 1 µM, first compound 0.0316 µM)?
Answer: The viability, T/C was 13.3%.

Question: And the viability, T/C (second compound 1 µM, first compound 0.1 µM)?
Answer: The viability, T/C was 6.38%.

Question: What about the viability, T/C (second compound 3.16 µM, first compound 0.000316 µM) of the same compound?
Answer: The viability, T/C was 103%.

Question: And the viability, T/C (second compound 3.16 µM, first compound 0.001 µM)?
Answer: The viability, T/C was 96.1%.

Question: And the viability, T/C (second compound 3.16 µM, first compound 0.00316 µM)?
Answer: Its viability, T/C is 69.9%.

Question: And the viability, T/C (second compound 3.16 µM, first compound 0.01 µM)?
Answer: Its viability, T/C is 34.7%.

Question: And the viability, T/C (second compound 3.16 µM, first compound 0.0316 µM)?
Answer: Its viability, T/C is 14.4%.

Question: And the viability, T/C (second compound 3.16 µM, first compound 0.1 µM)?
Answer: Its viability, T/C is 6.43%.

Question: And the viability, T/C (second compound 10 µM, first compound 0.000316 µM)?
Answer: Its viability, T/C is 87.9%.

Question: And the viability, T/C (second compound 10 µM, first compound 0.001 µM)?
Answer: Its viability, T/C is 79.8%.

Question: And the viability, T/C (second compound 10 µM, first compound 0.00316 µM)?
Answer: The viability, T/C was 59%.

Question: And the viability, T/C (second compound 10 µM, first compound 0.01 µM)?
Answer: The viability, T/C was 35.6%.

Question: And the viability, T/C (second compound 10 µM, first compound 0.0316 µM)?
Answer: The viability, T/C was 20.7%.

Question: What about the viability, T/C (second compound 10 µM, first compound 0.1 µM) of the same compound?
Answer: The viability, T/C was 5.8%.

Question: What does the source list for `COc1cc(C2c3cc4c(cc3C(OC3OC5COC(C)OC5C(O)C3O)C3COC(=O)C23)OCO4)cc(OC)c1O` (stereo not given) + NC1CC1c1ccc(-c2cccc(O)c2)cc1?
Answer: IC50 (second compound 0.1 µM): 164 nM; IC50 (second compound 0.316 µM): 116 nM; IC50 (second compound 1 µM): 185 nM; IC50 (second compound 3.16 µM): 316 nM; IC50 (second compound 10 µM): 321 nM; viability, T/C (second compound 0.1 µM, first compound 0.00949 µM): 92.1%; viability, T/C (second compound 0.1 µM, first compound 0.03 µM): 76%; viability, T/C (second compound 0.1 µM, first compound 0.0949 µM): 56.4%; viability, T/C (second compound 0.1 µM, first compound 0.3 µM): 42.7%; viability, T/C (second compound 0.1 µM, first compound 0.949 µM): 30.3%; viability, T/C (second compound 0.1 µM, first compound 3 µM): 23.8%; viability, T/C (second compound 0.316 µM, first compound 0.00949 µM): 87.8%; viability, T/C (second compound 0.316 µM, first compound 0.03 µM): 75.6%; viability, T/C (second compound 0.316 µM, first compound 0.0949 µM): 52.9%; viability, T/C (second compound 0.316 µM, first compound 0.3 µM): 33.9%; viability, T/C (second compound 0.316 µM, first compound 0.949 µM): 31%; viability, T/C (second compound 0.316 µM, first compound 3 µM): 22.6%; viability, T/C (second compound 1 µM, first compound 0.00949 µM): 90.4%; viability, T/C (second compound 1 µM, first compound 0.03 µM): 79.6%; viability, T/C (second compound 1 µM, first compound 0.0949 µM): 53.6%; viability, T/C (second compound 1 µM, first compound 0.3 µM): 46.3%; viability, T/C (second compound 1 µM, first compound 0.949 µM): 29.9%; viability, T/C (second compound 1 µM, first compound 3 µM): 18.3%; viability, T/C (second compound 3.16 µM, first compound 0.00949 µM): 89.5%; viability, T/C (second compound 3.16 µM, first compound 0.03 µM): 72%; viability, T/C (second compound 3.16 µM, first compound 0.0949 µM): 63.6%; viability, T/C (second compound 3.16 µM, first compound 0.3 µM): 40.5%; viability, T/C (second compound 3.16 µM, first compound 0.949 µM): 54.4%; viability, T/C (second compound 3.16 µM, first compound 3 µM): 18.4%; viability, T/C (second compound 10 µM, first compound 0.00949 µM): 83.6%; viability, T/C (second compound 10 µM, first compound 0.03 µM): 77.8%; viability, T/C (second compound 10 µM, first compound 0.0949 µM): 59.9%; viability, T/C (second compound 10 µM, first compound 0.3 µM): 51.6%; viability, T/C (second compound 10 µM, first compound 0.949 µM): 39.5%; viability, T/C (second compound 10 µM, first compound 3 µM): 27.8%

Source: PubChem BioAssay AID1918938 (Molecular Pharmacology Branch, DTP, NCI, 2023)
